Measured values as given in ChEMBL document CHEMBL1142268, “Histone deacetylase inhibitors: from bench to clinic” (J Med Chem, 2008).

system: MKN-45; assay: Antiproliferative activity against human MKN45 cells; type: functional, cell-based; details: not given

Row | Structure (SMILES) | IC50
1 | COc1ccc(CNCCn2ccc(-c3ccc(C(=O)NO)s3)n2)cc1 | 550 nM
2 | O=C(NO)c1ccc(-c2ccn(CCOc3ccccc3)n2)s1 | 1500 nM
3 | O=C(NO)c1ccc(-c2ccn(CCc3ccccc3)n2)s1 | 2910 nM
4 | Cn1c(CNCCn2ccc(-c3ccc(C(=O)NO)s3)n2)cc2ccccc21 | 370 nM
5 | O=C(NO)c1ccc(-c2ccn(CCNCc3ccc(-n4ccnc4)cc3)n2)s1 | 560 nM
6 | COc1ccccc1NC(=O)Cn1ccc(-c2ccc(C(=O)NO)s2)n1 | 230 nM
7 | O=C(NO)c1ccc(-c2ccn(CCOCc3ccccc3)n2)s1 | 750 nM
8 | O=C(NO)c1ccc(-c2ccn(Cc3ccccc3)n2)s1 | 4540 nM
9 | O=C(NO)c1ccc(-c2ccn(CCNCc3ccc4[nH]ccc4c3)n2)s1 | 280 nM
10 | O=C(NO)c1ccc(-c2ccn(CCCc3ccccc3)n2)s1 | 2190 nM
11 | O=C(NO)c1ccc(-c2ccn(CCNCc3ccccc3)n2)s1 | 1800 nM
12 | O=C(NO)c1ccc(-c2ccn(CCNCc3ccc(-c4ccccn4)cc3)n2)s1 | 120 nM
13 | O=C(Cn1ccc(-c2ccc(C(=O)NO)s2)n1)Nc1cccc2cccnc12 | 200 nM
14 | O=C(Cn1ccc(-c2ccc(C(=O)NO)s2)n1)Nc1ccccc1 | 840 nM
15 | Cn1nc(C(F)(F)F)cc1-c1ccc(C(=O)NO)s1 | 31500 nM
16 | COc1ccc(CNCCn2ccc(-c3ccc(C(=O)NO)s3)n2)cc1OC | 4500 nM

molecular target: T1, Histone deacetylase 1 (Homo sapiens, UniProt Q13547); details: not given
T1 sequence (Q13547 whole entry): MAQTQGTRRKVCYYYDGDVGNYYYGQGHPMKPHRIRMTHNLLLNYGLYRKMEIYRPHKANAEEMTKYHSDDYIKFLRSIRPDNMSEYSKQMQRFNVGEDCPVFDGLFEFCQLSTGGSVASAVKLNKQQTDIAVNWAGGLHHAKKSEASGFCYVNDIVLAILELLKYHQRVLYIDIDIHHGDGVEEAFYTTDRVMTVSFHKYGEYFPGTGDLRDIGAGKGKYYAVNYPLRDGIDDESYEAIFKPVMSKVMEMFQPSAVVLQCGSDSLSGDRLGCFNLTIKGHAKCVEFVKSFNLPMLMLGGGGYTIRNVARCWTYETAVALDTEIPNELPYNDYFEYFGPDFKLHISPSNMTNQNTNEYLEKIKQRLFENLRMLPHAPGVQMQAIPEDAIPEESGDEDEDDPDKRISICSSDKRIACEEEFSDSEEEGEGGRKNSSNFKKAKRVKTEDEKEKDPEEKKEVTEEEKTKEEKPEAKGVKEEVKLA

Row | Structure (SMILES) | IC50
17 | COc1ccc2[nH]c(C)c(CN[C@@H](CCCCCC(C)=O)C(=O)Nc3nc(-c4ccccc4)cs3)c2c1 | 25 nM
18 | CC(=O)CCCCC[C@H](NC(=O)CCN1CCCCC1)C(=O)NCCc1c(-c2ccccc2)[nH]c2ccccc12 | 190 nM
19 | CC(=O)CCCCC[C@H](NC1CCCCN1C)C(=O)Nc1cccc(-c2ccccc2)c1 (some centres undefined) | 79 nM
20 | O=C(Nc1ccc2cc(C(=O)NO)sc2c1)c1ccc2ccccc2c1 | 79 nM
21 | O=C(NO)c1cc2cc(NC(=O)c3cccc4ccccc34)ccc2s1 | 1070 nM

molecular target: Histone deacetylase; assay: Inhibition of HDAC from human HeLa cells; type: cell-based; details: not given

Row | Structure (SMILES) | IC50
22 | O=C(NO)c1ccc(-c2cccnc2)s1 | 1130 nM
23 | O=C(NO)c1ccc(-c2ccccn2)s1 | 243 nM
24 | CSCCCCCCC(=O)Nc1ccccc1 | > 100000 nM
25 | O=C(NO)c1ccc(-c2ccncc2)s1 | 1260 nM

same assay, conditions: read-out: IC50

Row | Structure (SMILES) | IC50
26 | COc1ccc(-c2nc3cc(Cl)ccc3o2)cc1NC(=O)NCCCCCC(=O)NO | 146 nM
27 | O=C(/C=C/c1cccc(NS(=O)(=O)c2ccccc2)c1)NO | 188 nM
28 | COc1ccc(S(=O)(=O)Nc2cccc(/C=C/C(=O)NO)c2)cc1OC | 137 nM
29 | COc1ccc(-c2nc3cc(-c4ccccc4)ccc3o2)cc1NC(=O)NCCCCCC(=O)NO | 400 nM
30 | O=C(CCCCCNC(=O)Nc1cccc(-c2nc3ccc(F)cc3o2)c1)NO | 9 nM
31 | COc1ccc(-c2nc3cc(Cl)cc(Cl)c3o2)cc1NC(=O)NCCCCCC(=O)NO | 128 nM
32 | O=C(/C=C/c1ccc(S(=O)(=O)Nc2ccc(-c3ccccc3)cc2)cc1)NO | 66 nM
33 | Cc1ccc(S(=O)(=O)Nc2cccc(/C=C/C(=O)NO)c2)cc1 | 123 nM
34 | O=C(CCCCCNC(=O)Nc1cccc(-c2nc3cc(F)ccc3o2)c1)NO | 8 nM
35 | O=C(CCCCS)Nc1ccccc1 | 6200 nM
36 | O=C(CCCCCNC(=O)Nc1cccc(-c2nc3ccccc3o2)c1)NO | 8 nM
37 | COc1ccc(-c2nc3ccc(F)cc3o2)cc1NC(=O)NCCCCCC(=O)NO | 18 nM
38 | COc1ccc(-c2nc3ccccc3o2)cc1NC(=O)NCCCCCC(=O)NO | 12 nM
39 | O=C(/C=C/c1cccc(NS(=O)(=O)c2ccc(-c3ccccc3)cc2)c1)NO | 106 nM
40 | Cc1ccc(NS(=O)(=O)c2cccc(/C=C/C(=O)NO)c2)cc1 | 18 nM
41 | O=C(/C=C/c1ccc(NS(=O)(=O)c2ccc(-c3ccccc3)cc2)cc1)NO | 30 nM
42 | O=C(CCCCCNC(=O)Nc1cccc(-c2nc3cc(C(F)(F)F)ccc3o2)c1)NO | 19 nM
43 | COc1ccc(NS(=O)(=O)c2cccc(/C=C/C(=O)NO)c2)cc1OC | 23 nM
44 | CN(c1ccccc1)S(=O)(=O)c1cccc(/C=C/C(=O)NO)c1 | 476 nM
45 | O=C(/C=C/c1cccc(S(=O)(=O)Nc2ccc(-c3ccccc3)cc2)c1)NO | 54 nM
46 | CC(=O)SCCCCCCC(=O)Nc1ccccc1 | 7100 nM
47 | COc1ccc2oc(-c3cccc(NC(=O)NCCCCCC(=O)NO)c3)nc2c1 | 12 nM
48 | O=C(/C=C/c1cccc(S(=O)(=O)NCc2ccccc2)c1)NO | 34 nM
49 | COc1ccc(-c2nc3cc(F)ccc3o2)cc1NC(=O)NCCCCCC(=O)NO | 15 nM
50 | O=C(/C=C/c1ccc(S(=O)(=O)Nc2ccccc2)cc1)NO | 29 nM

system: HT-1080; assay: Inhibition of human HT1080 cells; type: functional, cell-based; details: not given

Row | Structure (SMILES) | IC50
51 | O=C(CCCCCCc1ncc(-c2ccccc2)o1)NO | 8.41 µM
52 | O=C(CCCCCCc1nc(-c2ccc(-c3ccccc3)cc2)cs1)NO | 1.32 µM
53 | O=C(CCCCCCc1nc(-c2ccc(Br)cc2)cs1)NO | 5.68 µM
54 | COc1ccc(-c2cnc(CCCCCCC(=O)NO)o2)cc1 | 0.31 µM
55 | COc1ccc(-c2csc(CCCCCCC(=O)NO)n2)cc1 | 3.63 µM
56 | COc1cccc(OC)c1-c1csc(CCCCCCC(=O)NO)n1 | 2 µM
57 | O=C(CCCCCCc1cnc(-c2ccc(OC(F)(F)F)cc2)o1)NO | 5.14 µM
58 | O=C(CCCCCCc1ncc(-c2ccc(Br)cc2)o1)NO | 7.7 µM
59 | O=C(CCCCCCc1nc(-c2ccccc2)cs1)NO | 5.07 µM
60 | O=C(CCCCCCc1nc(-c2cccc(Br)c2)cs1)NO | 10.1 µM
61 | O=C(CCCCCCc1cnc(-c2ccc(Br)cc2)o1)NO | 27 µM
62 | O=C(CCCCCCc1cnc(-c2ccc(-c3ccccc3)cc2)o1)NO | 15.3 µM
63 | O=C(CCCCCCc1nc(-c2ccc3ccccc3c2)cs1)NO | 2.39 µM
64 | O=C(CCCCCCc1nc(-c2ccc(C(F)(F)F)cc2)cs1)NO | 2.39 µM
65 | O=C(CCCCCCc1ncc(-c2ccc(-c3ccc(Cl)cc3)cc2)o1)NO | 0.66 µM

molecular target: Histone deacetylase; assay: Inhibition of HDAC from human K562 cells; type: cell-based; details: not given

Row | Structure (SMILES) | IC50
66 | O=C(CCCCCCc1cnc(-c2ccc(F)cc2)o1)NO | 23 nM
67 | O=C(CCCCCCc1cnc(-c2ccccc2)o1)NO | 13 nM
68 | O=C(CCCCCCc1ncc(-c2ccccc2)o1)NO | 9.8 nM
69 | O=C(CCCCCCc1nc(-c2ccc(-c3ccccc3)cc2)cs1)NO | 11 nM
70 | O=C(O)CNC(=O)C(=O)CCCCCCOc1ccc(-c2ccccc2)cc1 | > 50000 nM
71 | CC(C)[C@H]1NC(=O)[C@@H](C)[C@@H](C/C=C\CCC(N)=O)NC(=O)[C@@H](Cc2ccccc2)NC(=O)[C@@H](C)NC1=O [AZUMAMIDE A] | 45 nM
72 | COC(=O)C(=O)CCCCCOc1ccc(-c2ccccc2)cc1 | 82 nM
73 | O=C(CCCCCCc1nc(-c2ccc(Br)cc2)cs1)NO | 8.5 nM
74 | COc1ccc(-c2cnc(CCCCCCC(=O)NO)o2)cc1 | 2.1 nM
75 | COc1ccc(-c2csc(CCCCCCC(=O)NO)n2)cc1 | 2.5 nM
76 | COc1cccc(OC)c1-c1csc(CCCCCCC(=O)NO)n1 | 4.3 nM
77 | CN(C)C(=O)C(=O)CCCCCCOc1ccc(-c2ccccc2)cc1 | > 5000 nM
78 | CN(C)CCNC(=O)C(=O)CCCCCCOc1ccc(-c2ccccc2)cc1 | > 50000 nM
79 | CCNC(=O)C(=O)CCCCCCOc1ccc(-c2ccccc2)cc1 | 4900 nM
80 | COC(=O)C(=O)CCCCCCOc1ccc(-c2ccccc2)cc1 | 62 nM
81 | O=C(CCCCCCc1cnc(-c2ccc(OC(F)(F)F)cc2)o1)NO | 89 nM
82 | O=C(CCCCCCc1ncc(-c2ccc(Br)cc2)o1)NO | 2.7 nM
83 | O=C(CCCCCCc1nc(-c2ccccc2)cs1)NO | 19 nM
84 | C1=C\CCCCCC[n+]2cccc(c2)CCCCCCCCCCCC[n+]2cccc(c2)CCCCCC/1 | 27000 nM
85 | O=C(CCCCCCc1nc(-c2cccc(Br)c2)cs1)NO | 5.8 nM
86 | COC(=O)C(=O)CCCCCCCOc1ccc(-c2ccccc2)cc1 | 109 nM
87 | O=C(CCCCCCc1nc(-c2ccc(OC(F)(F)F)cc2)cs1)NO | 74 nM
88 | NC(=O)C(=O)CCCCCCOc1ccc(-c2ccccc2)cc1 | > 50000 nM
89 | O=C(CCCCCCc1cnc(-c2ccc(Br)cc2)o1)NO | 4.4 nM
90 | O=C(CCCCCCc1cnc(-c2ccc(-c3ccccc3)cc2)o1)NO | 12 nM
91 | O=C(CCCCCCc1nc(-c2ccc3ccccc3c2)cs1)NO | 4.3 nM
92 | C[C@@H]1C(=O)N[C@H](C)C(=O)N[C@H](C)C(=O)N[C@H](Cc2ccccc2)C(=O)N[C@@H]1C/C=C\CCC(N)=O [AZUMAMIDE D] | 1300 nM
93 | O=C(CCCCCCc1nc(-c2ccc(C(F)(F)F)cc2)cs1)NO | 42 nM
94 | O=C(CCCCCCc1ncc(-c2ccc(-c3ccc(Cl)cc3)cc2)o1)NO | 6.8 nM
95 | O=C(O)C(=O)CCCCCCOc1ccc(-c2ccccc2)cc1 | 3700 nM

molecular target: T1, Histone deacetylase 1; assay: Inhibition of HDAC1 from human HeLa cells; type: cell-based; details: not given

Row | Structure (SMILES) | IC50
96 | CC(=O)CCCCC[C@H](NC(=O)C1CCCN(C)C1)C(=O)NCCc1c(-c2ccccc2)[nH]c2ccccc12 (some centres undefined) | 2000 nM
97 | COc1ccc2[nH]c(C)c(CN[C@@H](CCCCCC(C)=O)C(=O)Nc3nc(-c4ccccc4)cs3)c2c1 | < 390 nM
98 | CC(=O)CCCCC[C@H](NC(=O)CCN1CCCCC1)C(=O)NCCc1c(-c2ccccc2)[nH]c2ccccc12 | < 390 nM
99 | CC(=O)CCCCC[C@H](NC1CCCCN1C)C(=O)Nc1cccc(-c2ccccc2)c1 (some centres undefined) | 500 nM
100 | CC(=O)CCCCC[C@H](NC(C)=O)C(=O)NCCc1c(-c2ccccc2)[nH]c2ccccc12 | 7600 nM
101 | CC(=O)CCCCC[C@H](NC(=O)C1CCCCN1C)C(=O)NCCc1c(-c2ccccc2)[nH]c2ccccc12 (some centres undefined) | 2500 nM
102 | CC(=O)CCCCC[C@H](NC(=O)C1CCN(C)C1)C(=O)NCCc1c(-c2ccccc2)[nH]c2ccccc12 (some centres undefined) | 2000 nM
103 | CC(=O)CCCCC[C@H](NC(=O)c1cncs1)C(=O)NCCc1c(-c2ccccc2)[nH]c2ccccc12 | 3000 nM

system: HCT-116; assay: Inhibition of human HCT116 cells; type: functional, cell-based; details: not given

Row | Structure (SMILES) | IC50
104 | COc1ccc(CNc2ccc(/C=C/C(=O)Nc3ccccc3N)cn2)cc1 | 3000 nM
105 | COc1cc(NCc2ccc(/C=C/C(=O)Nc3ccccc3N)cn2)cc(OC)c1OC | 3000 nM
106 | Nc1ccccc1NC(=O)c1ccc(/C=C/C(=O)NCCc2c[nH]c3ccccc23)cc1 | 300 nM
107 | Nc1ccccc1NC(=O)CCCCCCNC(=O)c1cccc(-c2ccccc2)c1 | 12000 nM
108 | Nc1ccccc1NC(=O)CCCCCCNC(=O)c1ccc(-c2ccccc2)cc1 | 7000 nM
109 | Nc1ccccc1NC(=O)c1ccc(/C=C/CNc2nccc(-c3cccnc3)n2)cc1 | 200 nM
110 | COc1ccc(CNc2ccc(C(=O)Nc3ccccc3N)cc2)cc1OC | 600 nM
111 | COc1ccc(CNc2ccc(/C=C/C(=O)Nc3ccccc3N)cc2)cc1 | 37000 nM
112 | COc1cc(CNc2ccc(/C=C/C(=O)Nc3ccccc3N)cn2)cc(OC)c1OC | 2000 nM
113 | Nc1ccccc1NC(=O)c1ccc(CSc2nc3ccccc3[nH]2)cc1 | 320 nM
114 | COc1ccc(CCNc2ccc(C(=O)Nc3ccccc3N)cn2)cc1 | 800 nM
115 | Nc1ccccc1NC(=O)/C=C/c1ccc(NCc2ccccc2)nc1 | 1000 nM
116 | COc1ccc(CNc2ccc(C(=O)Nc3ccccc3N)cn2)cc1 | 500 nM
117 | COc1cc(NC/C=C/c2ccc(C(=O)Nc3ccccc3N)cc2)cc(OC)c1OC | 100 nM
118 | Nc1ccccc1NC(=O)c1ccc(/C=C/C(=O)NCc2cccnc2)cc1 | 70 nM
119 | COc1ccc(NCc2ccc(/C=C/C(=O)Nc3ccccc3N)cc2)cc1 | 12000 nM
